Measurements: patent US20090298866A1, “Indole Compounds” (priority 2006, published 2009)
Structures can show the parent of a compound that is named as a salt.

How the values were obtained:
human EP1 receptor [1] = molecular target: T1, human EP1 receptor (Homo sapiens, UniProt P34995); assay: Binding assay for the human prostanoid EP1 receptor (competition with [3H]-PGE2); conditions: binding to human EP1 receptor, CHO-K1 membranes, [3H]-PGE2 3 nM; averages of a number of experiments
T1 construct: expressed in transfected cells; host or cells: CHO-K1
T1 sequence (P34995 1-402): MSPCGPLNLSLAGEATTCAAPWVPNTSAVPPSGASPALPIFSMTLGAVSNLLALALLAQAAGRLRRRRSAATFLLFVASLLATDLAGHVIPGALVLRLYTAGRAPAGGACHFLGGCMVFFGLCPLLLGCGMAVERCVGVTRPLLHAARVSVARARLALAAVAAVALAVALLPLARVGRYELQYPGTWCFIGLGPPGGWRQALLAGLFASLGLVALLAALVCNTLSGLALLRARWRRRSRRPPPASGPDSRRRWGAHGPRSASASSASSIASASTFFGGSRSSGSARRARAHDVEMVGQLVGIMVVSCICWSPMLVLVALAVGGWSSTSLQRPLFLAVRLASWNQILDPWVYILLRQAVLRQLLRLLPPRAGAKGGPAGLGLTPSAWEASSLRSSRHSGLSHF
Description: Competition assay using [^3H]-PGE2.
Compound potencies are determined using a radioligand binding assay. In this assay compound potencies are determined from their ability to compete with tritiated prostaglandin E2 ([^3H]-PGE2) for binding to the human EP1 receptor. This assay utilises Chinese hamster ovary-K1 (CHO-K1) cells into which a stable vector containing the EP1 cDNA has previously been transfected. Cells are cultured in suitable flasks containing culture medium such as DMEM:F-12 supplemented with 10% v/v foetal calf serum, 2 mM L-glutamine, 0.25 mg/ml geneticin, 10 μg/ml puromycin and 10 μM indomethacin.
Cells are detached from the culture flasks by incubation in calcium and magnesium free phosphate buffered saline containing 1 mM disodium ethylenediaminetetraacetic acid (Na2EDTA) and 10 μM indomethacin for 5 min. The cells are isolated by centrifugation at 250×g for 5 mins and suspended in an ice cold buffer such as 50 mM Tris, 1 mM Na2EDTA, 140 mM NaCl, 10 μM indomethacin (pH 7.4). The cells are homogenised using a Polytron tissue disrupter (2×10 s burst at full setting), centrifuged at 48,000×g for 20 mins and the pellet containing the membrane fraction is washed (optional) three times by suspension and centrifugation at 48,000×g for 20 mins. The final membrane pellet is suspended in an assay buffer such as 10 mM 2-[N-morpholino]ethanesulphonic acid, 1 mM Na2EDTA, 10 mM MgCl2 (pH 6). Aliquots are frozen at −80° C. until required.
For the binding assay the cell membranes, competing compounds and [^3H]-PGE2 (3 nM final assay concentration) are incubated in a final volume of 100 μl for 30 min at 30° C. All reagents are prepared in assay buffer. Reactions are terminated by rapid vacuum filtration over GF/B filters using a Brandell cell harvester. The filters are washed with ice cold assay buffer, dried and the radioactivity retained on the filters is measured by liquid scintillation counting in Packard TopCount scintillation counter.
The data are analysed using non linear curve fitting techniques to determine the concentration of compound producing 50% inhibition of specific binding (IC50).

human EP1 receptor [2] = molecular target: T1, human EP1 receptor; assay: human EP1 calcium mobilisation assay; assay type: cell-based; conditions: human EP1, CHO-K1 cells, PGE2-induced calcium mobilisation; averages of a number of experiments; read-out: functional pKi (converted)
Description: Briefly, the antagonist properties of compounds are assessed by their ability to inhibit the mobilisation of intracellular calcium ([Ca^2+]i) in response to activation of EP1 or EP3 receptors by the natural agonist hormone prostaglandin E2 (PGE2). Increasing concentrations of antagonist reduce the amount of calcium that a given concentration of PGE2 can mobilise. The net effect is to displace the PGE2 concentration-effect curve to higher concentrations of PGE2. The amount of calcium produced is assessed using a calcium-sensitive fluorescent dye such as Fluo-4, AM and a suitable instrument such as a Fluorimetric Imaging Plate Reader (FLIPR). Increasing amounts of [Ca^2+]i produced by receptor activation increase the amount of fluorescence produced by the dye and give rise to an increasing signal. The signal may be detected using the FLIPR instrument and the data generated may be analysed with suitable curve-fitting software.
The human EP1 or EP3 calcium mobilisation assay (hereafter referred to as ‘the calcium assay’) utilises Chinese hamster ovary-K1 (CHO-K1) cells into which a stable (pCIN; BioTechniques 20 (1996): 102-110) vector containing either EP1 or EP3 cDNA has previously been transfected. Cells are cultured in suitable flasks containing culture medium such as DMEM:F-12 supplemented with 10% v/v foetal calf serum, 2 mM L-glutamine, 0.25 mg/ml geneticin, 100 μM flurbiprofen and 10 μg/ml puromycin.
For assay, cells are harvested using a proprietary reagent that dislodges cells such as Versene. Cells are re-suspended in a suitable quantity of fresh culture media for introduction into a 384-well plate. Following incubation for 24 hours at 37° C. the culture media is replaced with a medium containing Fluo-4 and the detergent pluronic acid, and a further incubation takes place. Concentrations of compounds are then added to the plate in order to construct concentration-effect curves. This may be performed on the FLIPR in order to assess the agonist properties of the compounds. Concentrations of PGE2 are then added to the plate in order to assess the antagonist properties of the compounds.
The data so generated may be analysed by means of a computerised curve-fitting routine. The concentration of compound that elicits a half-maximal inhibition of the calcium mobilisation induced by PGE2 (pIC50) may then be estimated.

**Q.** With CC(C)Cc1cn(-c2nc(NC(=O)C3CCCC3)cs2)c2cc(Cl)ccc12 [Example 3, N-{2-[6-Chloro-3-isobutyl-1H-indol-1-yl]-1,3-thiazol-4-yl}cyclopentanecarboxamide] as the molecule, how does the IC50 (human EP1 receptor [1]) read?
**A.** ≤ 0.1 µM

**Q.** How did the IC50 (human EP1 receptor [1]) turn out when CC(C)Cc1cn(-c2nc(NC(=O)C(C)(C)C)cs2)c2cc(Cl)ccc12 [Example 4, N-{2-[6-Chloro-3-isobutyl-1H-indoi-1-yl]-1,3-thiazol-4-yl}-2,2-dimethylpropanamide] was run?
**A.** ≤ 0.1 µM

**Q.** With CC(C)Cc1cn(-c2nc(NC(=O)c3c(F)cccc3F)cs2)c2cc(Cl)ccc12 [Example 5, N-[2-(6-Chloro-3-isobutyl-1H-indol-1-yl)-1,3-thiazol-4-yl]-2,6-difluorobenzamide] as the molecule, how does the Ki (human EP1 receptor [2]) read?
**A.** ≤ 0.1 µM

**Q.** CC(C)Cc1cn(-c2nc(C(=O)N3CCCC3)cs2)c2cc(Cl)ccc12 [Example 11, 6-Chloro-3-isobutyl-1-[4-(1-pyrrolidinylcarbonyl)-1,3-thiazol-2-yl]-1H-indole] was tested. Which Ki (human EP1 receptor [2]) did it give?
**A.** ≤ 0.1 µM

**Q.** CC(C)Cc1cn(-c2nc(C(=O)Nc3ccc(CO)cc3)cs2)c2cc(Br)ccc12 [Example 12, 2-[6-Bromo-3-isobutyl-1H-indol-1-yl]-N-[4-(hydroxymethyl)phenyl]-1,3-thiazole-4-carboxamide] was tested. Which Ki (human EP1 receptor [2]) did it give?
**A.** ≤ 0.1 µM

**Q.** What about the IC50 (human EP1 receptor [1]) of the same molecule?
**A.** ≤ 0.1 µM

**Q.** CC(C)c1cn(-c2nc(C(=O)Nc3ccccc3N)cs2)c2cc(Cl)ccc12 [Example 13, N-(2-Aminophenyl)-2-[6-chloro-3-isopropyl-1H-indol-1-yl]-1,3-thiazole-4-carboxamide] was tested. Which IC50 (human EP1 receptor [1]) did it give?
**A.** ≤ 0.1 µM

**Q.** Which results are given for CC(C)Cc1cn(-c2nc(C(=O)Nc3ccccc3CO)cs2)c2cc(Cl)ccc12 [Example 20, 2-[6-Chloro-3-isobutyl-1H-indol-1-yl]-N-[2-(hydroxymethyl)phenyl]-1,3-thiazole-4-carboxamide]?
**A.** Ki (human EP1 receptor [2]): ≤ 0.1 µM; IC50 (human EP1 receptor [1]): ≤ 0.1 µM

**Q.** With CC(C)Cc1cn(-c2nc(C(=O)Nc3ccc(CO)cc3)cs2)c2cc(Cl)ccc12 [Example 21, 2-[6-Chloro-3-isobutyl-1H-indol-1-yl]-N-[4-(hydroxymethyl)phenyl]-1,3-thiazole-4-carboxamide] as the molecule, how does the IC50 (human EP1 receptor [1]) read?
**A.** ≤ 0.1 µM

**Q.** CC(C)Cc1cn(-c2nc(C(=O)Nc3cccc(CO)c3)cs2)c2cc(Cl)ccc12 [Example 24, 2-[6-Chloro-3-isobutyl-1H-indol-1-yl]-N-[3-indol-1-yl]N-[3-(hydroxymethyl)phenyl]-1,3-thiazole-4-carboxamide] was tested. Which Ki (human EP1 receptor [2]) did it give?
**A.** ≤ 0.1 µM

**Q.** Which Ki (human EP1 receptor [2]) does the source give for CC(C)Cc1cn(-c2nc(C(=O)NCCCO)cs2)c2cc(Cl)ccc12 [Example 26, 2-[6-Chloro-3-isobutyl-1H-indol-1-yl]-N-(3-hydroxypropyl)-1,3-thiazole-4-carboxamide] here?
**A.** ≤ 0.1 µM

**Q.** For CC(C)Cc1cn(-c2nc(C(=O)Nc3ccccn3)cs2)c2cc(Cl)ccc12 [Example 27, 2-[6-Chloro-3-isobutyl-1H-indol-1-yl]-N-2-pyridinyl-1,3-thiazole-4-carboxamide], which Ki (human EP1 receptor [2]) is on record?
**A.** ≤ 0.1 µM

**Q.** CC(C)Cc1cn(-c2nc(C(=O)Nc3ccc(F)cc3)cs2)c2cc(Cl)ccc12 [Example 29, 2-[6-Chloro-3-isobutyl-1H-indol-1-yl]-N-(4-fluorophenyl)-1,3-thiazole-4-carboxamide] was tested. Which Ki (human EP1 receptor [2]) did it give?
**A.** ≤ 0.1 µM

**Q.** How did the Ki (human EP1 receptor [2]) turn out when CC(C)Cc1cn(-c2nc(C(N)=O)cs2)c2cc(Cl)ccc12 [Example 30, 2-[6-Chloro-3-isobutyl-1H-indol-1-yl]-1,3-thiazole-4-carboxamide] was run?
**A.** ≤ 0.1 µM

**Q.** For CC(C)Cc1cn(-c2nc(C(N)=O)cs2)c2cc(Br)ccc12 [Example 32, 2-[6-Bromo-3-isobutyl-1H-indol-1-yl]-1,3-thiazole-4-carboxamide], which Ki (human EP1 receptor [2]) is on record?
**A.** ≤ 0.1 µM

**Q.** How did the Ki (human EP1 receptor [2]) turn out when CC(C)Cc1cn(Cc2nc(C(N)=O)cs2)c2cc(Cl)ccc12 [Example 34, 2-{[6-Chloro-3-isobutyl-1H-indol-1-yl]methyl}-1,3-thiazole-4-carboxamide] was run?
**A.** ≤ 0.1 µM

**Q.** With CC(C)Cc1cn(-c2nc(-c3nc4ccccc4[nH]3)cs2)c2cc(Cl)ccc12 [Example 35, 2-{2-[6-Chloro-3-isobutyl-1H-indol-1-yl]-1,3-thiazol-4-yl}-1H-benzimidazole hydrochloride] as the molecule, how does the Ki (human EP1 receptor [2]) read?
**A.** ≤ 0.1 µM

**Q.** And the IC50 (human EP1 receptor [1])?
**A.** ≤ 0.1 µM

**Q.** CC(C)(C)CCc1cn(-c2nc(-c3nc4ccccc4[nH]3)cs2)c2cc(Cl)ccc12 [Example 37, 2-{2-[6-Chloro-3-(3,3-dimethylbutyl)-1H-indol-1-yl]-1,3-thiazol-4-yl}-1H-benzimidazole hydrochloride] was tested. Which IC50 (human EP1 receptor [1]) did it give?
**A.** ≤ 0.1 µM

**Q.** Which results are given for CC(C)Cc1cn(-c2nc(-c3nc4ccccc4[nH]3)cs2)c2cc(Br)ccc12 [Example 38, 2-{2-[6-Bromo-3-isobutyl-1H-indol-1-yl]-1,3-thiazol-4-yl}-1H-benzimidazole hydrochloride]?
**A.** Ki (human EP1 receptor [2]): ≤ 0.1 µM; IC50 (human EP1 receptor [1]): ≤ 0.1 µM

**Q.** CC(C)Cc1nn(-c2nc(-c3nc4ccccc4[nH]3)cs2)c2cc(Cl)ccc12 [Example 39, 1-[4-(1H-Benzimidazol-2-yl)-1,3-thiazol-2-yl]-6-chloro-3-isobutyl-1H-indazole hydrochloride] was tested. Which IC50 (human EP1 receptor [1]) did it give?
**A.** ≤ 0.1 µM

**Q.** Which Ki (human EP1 receptor [2]) does the source give for CC(C)Cc1cn(Cc2nc(-c3nc4ccccc4[nH]3)cs2)c2cc(Cl)ccc12 [Example 40, 2-(2-{[6-Chloro-3-isobutyl-1H-indol-1-yl]methyl}-1,3-thiazol-4-yl)-1H-benzimidazole hydrochloride] here?
**A.** ≤ 0.1 µM

**Q.** And the IC50 (human EP1 receptor [1])?
**A.** ≤ 0.1 µM

**Q.** Which Ki (human EP1 receptor [2]) does the source give for CC(C)Cc1cn(-c2nc(-c3nc4ccccc4[nH]3)cs2)c2cc(C(F)(F)F)ccc12 [Example 41, 2-{2-[3-Isobutyl-6-(trifluoromethyl)-1H-indol-1-yl]-1,3-thiazol-4-yl}-1H-benzimidazole] here?
**A.** ≤ 0.1 µM

**Q.** And the IC50 (human EP1 receptor [1])?
**A.** ≤ 0.1 µM

**Q.** How did the IC50 (human EP1 receptor [1]) turn out when CC(C)Cc1cn(-c2nc(-c3nc4ncccc4[nH]3)cs2)c2cc(Cl)ccc12 [Example 42, 2-{2-[6-Chloro-3-isobutyl-1H-indol-1-yl]-1,3-thiazol-4-yl}-1H-imidazo[4,5-b]pyridine hydrochloride] was run?
**A.** ≤ 0.1 µM

**Q.** With CC(C)Cc1cn(-c2nc(-c3nc4cnccc4[nH]3)cs2)c2cc(Cl)ccc12 [Example 43, 2-{2-[6-Chloro-3-isobutyl-1H-indol-1-yl]-1,3-thiazol-4-yl}-1H-imidazo[4,5-c]pyridine hydrochloride] as the molecule, how does the Ki (human EP1 receptor [2]) read?
**A.** ≤ 0.1 µM

**Q.** And the IC50 (human EP1 receptor [1])?
**A.** ≤ 0.1 µM

**Q.** With CC(C)Cc1cn(-c2nc(-c3ncc[nH]3)cs2)c2cc(Cl)ccc12 [Example 47, 6-Chloro-1-[4-(1H-imidazol-2-yl)-1,3-thiazol-2-yl]-3-isobutyl-1H-indole] as the molecule, how does the IC50 (human EP1 receptor [1]) read?
**A.** ≤ 0.1 µM

**Q.** With CC(C)Cc1cn(-c2nc(-c3nc(-c4ccccc4)c[nH]3)cs2)c2cc(Cl)ccc12 [Example 52, 6-Chloro-3-isobutyl-1-[4-(4-phenyl-1H-imidazol-2-yl)-1,3-thiazol-2-yl]-1H-indole] as the molecule, how does the Ki (human EP1 receptor [2]) read?
**A.** ≤ 0.1 µM
